Source: patent US8940701B2, “Compounds for, and methods of, treating cancer and inhibiting invasion and metastases” (The Regents of the University of Michigan, priority 2009, dated 2015)
Where “and” joins values, the source holds several entries; their conditions need not be identical. Identical values can stand only once. Like-named read-outs stand apart in the source and are kept apart here. Bridge positions count the residues as written; N and C are the ends. Square brackets hold non-standard residues; d marks the D form. Peptide text beside a SMILES is read from it. I, II: the chains in the order shown.

Assays:
BxPC-3 cells = assay: invasion of irradiated cells on SU-ECM basement membranes; format: cell-based; details: 1 μg/ml peptide, single 3 Gy dose, 16 hours
Protocol: (§1) Adherent BxPC-3 and Panc1 cells were irradiated. Panc1 cells received a single 2 Gy dose. BxPC-3 cells received a single 3 Gy dose. Approximately 45 minutes later, the cells were suspended (trypsinized), pelleted and resuspended in medium containing 10% fetal calf serum. Then, the appropriate concentration of the Ac-PHSCN—NH2 (SEQ ID NO: 12) peptide, as well as a scrambled peptide Ac-HSPNC—NH2 (SEQ ID NO:15), was added to the suspended cells to make a final peptide concentration of 1 μg/ml, and they were dropped onto the surfaces of SU-ECM (sea urchin embryo basement membranes). At the time the cells were placed on the basement membranes, one hour had elapsed since irradiation. Cells were incubated on the basement membranes for 16 hours at 37° C. in 5% CO2, prior to scoring at 400-fold magnification, under phase contrast optics. All single cells adherent to the basement membranes were scored, with respect to whether they were inside the basement membranes (invaded), or were still adherent to the exterior surface (uninvaded). Mean invasion percentages were determined with their first standard deviations for each sample.

Panc1 cells = assay: as above; format: cell-based; details: 1 μg/ml peptide, single 2 Gy dose, 16 hours
Protocol: as §1

[1] = tested on: metastatic human breast (SUM 52 PE) and prostate (DU 145) cancer cell lines, human microvascular cells (hmvec); format: cell-based; details: for fold more potent than the unmodified PHSCN: SUM 52 PE and DU 145 invasion
Protocol: Some of the examples below employ an invasion assay utilizing naturally occurring basement membranes from 72 hour sea urchin embryos. Breast and prostate cancer invasion was induced with serum; hmvec invasion was induced with the PHSRN sequence of the plasma fibronectin (pFn) cell binding domain. The assay is described in U.S. Pat. No. 6,001,965, hereby incorporated by reference.
In this example, PHSCN peptides, where the sulfur of the SH group of cysteine was modified to block disulfide bond formation, were tested in an in vitro invasion assay utilizing naturally occurring basement membranes. More specifically, the invasion-inhibiting potencies of S-methylated and S-acetylated derivatives of the PHSCN (SEQ ID NO:1) peptide [i.e. Ac-PHSC(S—CH3)N—NH2 (SEQ ID NO:3) and Ac-PHSC(S—COCH3)N—NH2, (SEQ ID NO:4), respectively] were quantitated [in comparison with PHSCN (SEQ ID NO:1) dimerized by S—S bond formation] with two types of metastatic human cancer cell lines, i.e. a breast cell line (SUM 52 PE) and a prostate cell line (DU 145) (see FIG. 1 and FIG. 2, respectively). These modified peptides prevent breast cancer and prostate cancer invasion at concentrations in the pg/ml range.
In this example, PHSCN peptides, where two L-amino acids are substituted with D-amino acids, were tested in an in vitro invasion assay utilizing naturally occurring basement membranes. More specifically, the invasion-inhibiting potencies of Ac-PHScN—NH2 (SEQ ID NO:7), and Ac-PhScN—NH2 (SEQ ID NO:8) were quantitated [in comparison with Ac-PHSCN—NH2 (SEQ ID NO:12) as well as a scrambled peptide Ac-HSPNC—NH2 (SEQ ID NO:15)] with two types of metastatic human cancer cell lines, i.e. a breast cell line (SUM 52 PE) and a prostate cell line (DU 145) (see FIG. 3 and FIG. 4, respectively), as well as human microvascular cells (“hmvec”) (see FIG. 5). These modified peptides prevent breast cancer and prostate cancer invasion at concentrations in the pg/ml range.
Table I compares IC50's of Ac-PHSCN—NH2 (“PHSCN”) (SEQ ID NO:12), Ac-PhScN—NH2 (SEQ ID NO:8) (“PhScN”), Ac-PHScN—NH2 (SEQ ID NO:7) (“PHScN”), and the S-methylated and S-acetylated PHSCN derivatives [Ac-PHSC(S-Me)N—NH2 (SEQ ID NO:3) and Ac-PHSC(S—COCH3)N—NH2 (SEQ ID NO:4)]. The IC50 for PhScN is over 10,000-fold lower than that for PHSCN.

DU 145 prostate cancer = assay: subcutaneous DU 145 tumors in nude mice, systemic therapy; format: in vivo, athymic nude mice
Protocol: In this example, PHSCN peptides, where two L-amino acids are substituted with D-amino acids, were tested in vivo. FIG. 6 compares the antitumorigenic effects of systemic Ac-PhScN—NH2 (SEQ ID NO:8) therapy at three different dosages (0.5, 0.05, and 0.005 micrograms per kg) with the antitumorigenic effects of 0.5 mg (500 micrograms) per kg of Ac-PHSCN—NH2 (SEQ ID NO:12) therapy using the DU 145 prostate cancer (as well as with untreated controls). The experiment involved generating subcutaneous DU 145 tumors in nude mice. More specifically, 500,000 suspended DU 145 cells were injected subcutaneously into the flanks of athymic nude mice. All mice were allowed to grow untreated DU 145 tumors in their flanks for about 8 weeks. All 3 therapies (i.e. using the three different dosages) were administered thrice-weekly by tail vein injection after the tumors became palpable. Each treatment group consisted of 8 intramuscular (flank) tumors. After 7 weeks of treatment, when the untreated tumors were very large, all mice were sacrificed at the same time, and all tumors dissected out and measured.

[2] = tested on: human breast and prostate cancer cell lines; details: systemic; cited from earlier work
[3] = tested on: hmvec, normal human microvascular cells; details: cited from earlier work
end-stage human cancers = details: cited from earlier work
α5β1 integrin [4] = target: T1, α5β1 integrin (Homo sapiens, UniProt P08648); assay: surface α5β1 levels on irradiated pancreatic cancer cells (immunofluorescence); format: cell-based; parameters: surface α5β1 levels on irradiated pancreatic cancer cells; endogenous in cells; host or cells: Panc1 and BxPC-3 pancreatic cancer cells; details: 1 μg per ml prebound 1 hour; Panc1 2 Gy, BxPC-3 3 Gy; 1 hr and 2 hr
Protocol: In this example, antibodies are used to measure downregulation of surface α5β1 levels on irradiated pancreatic cancer cells. Cells were prebound to 1 μg per ml Ac-PHSCN—NH2 (SEQ ID NO:12) peptide per 20,000 cells in medium containing 10% fetal bovine serum for serum for 1 hour at 37° C. The peptide-containing medium was removed, and replaced with serum-containing medium, prior to irradiation. Adherent cells were irradiated once: 2 Gy for Panc1 cells, and 3 Gy for BxPC-3 cells. One hour after irradiation, cells were quickly rinsed with phosphate-buffered saline (PBS) pH 7.4), then fixed for 15 minutes in 4% Paraformaldahyde (commercially available from Fluka) in PBS at room temperature. […] After three PBS washes, cells were incubated in anti-mouse IgG secondary antibody, conjugated with fluorosceine isothiocyanate (FITC) fluorescence marker (commercially available from Jackson ImmunoResearch Lab, Inc) at 1:200 dilution for 1 h at room temperature. […]
Means and first standard deviations (SD) were calculated using Image-Pro Plus software over 30 areas per treatment selected randomly under 400-fold magnification, then copied and pasted on Microsoft Excel data sheets for further data analysis. All data (see FIG. 10) are expressed as mean±SD and evaluated with ANOVA Student t-test. […]

[5] = tested on: DU 145 prostate cancer cells; details: 20 ug per ml, one hour preincubation, then irradiation
α5β1 integrin [6] = target: T1, α5β1 integrin; assay: competition with biotinylated PHSCN binding in SUM149PT cell extracts (blot); details: PhScN:PHSCN ratios 0:1, 1:1, 10:1, 50:1
Description: In this experiment, biotinylated PHSCN peptide (Ac-PHSCNGGK(Bio)-NH2) (SEQ ID NO:18) was mixed with varying amounts of unlabeled Ac-PhScN—NH2 (SEQ ID NO:8). The mixed peptides were bound to detergent extracts of SUM149PT cells. A denaturing, non-reducing gel was run, blotted, and reacted with anti biotin primary antibody (FIG. 7). PhScN:PHSCN ratios were 0:1, 1:1, 10:1, or 50:1, as shown in lanes 2-5, respectively. Lane 1 contains the biotinylated α5β1 control. […] Thus, it is likely to interact with the same target site on α5 integrin as the PHSCN peptide. Alternatively PhScN binding could produce a structural or conformational change in the α5 subunit, such as a change in disulfide bonding pattern, that prevents binding of biotinylated PHSCN.

## Ac-HSPNC—NH2 (Ac-HSPNC-NH2) [scrambled peptide control]
BxPC-3 cells
  invasion after irradiation: no inhibition of invasiveness
Panc1 cells
  invasion after irradiation: no inhibition of invasiveness

## Ac-PHSC(Ac)N-NH2 [PHSC(S—COCH3)N, Ac-PHSC(S—COCH3)N—NH2]
[1]; 72 h
  IC50 (concentration exhibiting a 50% inhibition of invasion, relative to stimulated controls): 0.1 pg/mL
[1]
  fold more potent than the unmodified PHSCN: ~100,000 fold
[1]; listed as S-OAc
  invasion-inhibiting potency relative to comparators, in words: many orders of magnitude more potent

## CC(=O)N1CCC[C@H]1C(=O)N[C@@H](Cc1c[nH]cn1)C(=O)N[C@@H](CO)C(=O)N[C@@H](CSSC[C@H](NC(=O)[C@H](CO)NC(=O)[C@H](Cc1c[nH]cn1)NC(=O)[C@@H]1CCCN1C(C)=O)C(=O)N[C@@H](CC(N)=O)C(N)=O)C(=O)N[C@@H](CC(N)=O)C(N)=O [(PHSCN)2] (I: Ac-PHSCN-NH2 / II: Ac-PHSCN-NH2; disulfide I:4-II:4; N-terminus and C-terminus assumed)
[1]; 72 h
  IC50 (concentration exhibiting a 50% inhibition of invasion, relative to stimulated controls): 100 to 500 pg/mL

## Ac-PHSCN-NH2 [PHSCN, Ac-PHSCN—NH2]
[1]; 72 h
  IC50 (concentration exhibiting a 50% inhibition of invasion, relative to stimulated controls): 30,000 pg/ml
DU 145 prostate cancer; 0.5 mg per kg thrice-weekly by tail vein injection, 7 weeks of treatment
  mean tumor diameter: untreated tumors fold larger relative to treated tumors: over 6 fold
BxPC-3 cells
  invasion after irradiation: reduced invasion to zero
Panc1 cells
  invasion after irradiation: reduced invasion to zero
[2]
  concentration preventing metastatic disease progression: 1 to 2 µM
  dosage preventing metastatic disease progression: 0.5 to 50 mg/kg
[3]
  potency at preventing hmvec invasion: equally potent
end-stage human cancers; human, in vivo
  adverse events: without significant adverse events
end-stage human cancers; thrice-weekly systemic monotherapy
  time metastatic disease progression was prevented: 4 to 14 months
α5β1 integrin [4]
  α5β1 expression on irradiated cancer cells: dramatically downregulated

## CSC[C@H](NC(=O)[C@H](CO)NC(=O)[C@H](Cc1c[nH]cn1)NC(=O)[C@@H]1CCCN1C(C)=O)C(=O)N[C@@H](CC(N)=O)C(N)=O [PHSC(S—CH3)N, Ac-PHSC(S—CH3)N—NH2] (Ac-PHSC(Me)N-NH2)
[1]; 72 h
  IC50 (concentration exhibiting a 50% inhibition of invasion, relative to stimulated controls): 1 pg/mL
[1]
  fold more potent than the unmodified PHSCN: ~1000 fold
[1]; listed as S-Me
  invasion-inhibiting potency relative to comparators, in words: many orders of magnitude more potent

## PHSCNGGKMAP [PHSCNGGK-MAP (8), Ac-PHSCNGGK-MAP]
[1]; cell type not given
  IC50 (concentration exhibiting a 50% inhibition of invasion, relative to stimulated controls): 300 pg/mL
[5]
  enhancement ratio (MED control / MED with dendrimer): larger than one

## CC(=O)N1CCC[C@H]1C(=O)N[C@@H](Cc1c[nH]cn1)C(=O)N[C@@H](CO)C(=O)N[C@H](CS)C(=O)N[C@@H](CC(N)=O)C(N)=O [Ac-PHScN-NH2] (Ac-PHS[dC]N-NH2)
[1]
  invasion-inhibiting potency relative to comparators, in words: better than the controls, albeit not as potent as the two D-amino acid-containing peptide
[1]; 72 h
  IC50 (concentration exhibiting a 50% inhibition of invasion, relative to stimulated controls): 5 pg/mL

## CC(=O)N1CCC[C@H]1C(=O)N[C@H](Cc1c[nH]cn1)C(=O)N[C@@H](CO)C(=O)N[C@H](CS)C(=O)N[C@@H](CC(N)=O)C(N)=O [Ac-PhScN-NH2] (Ac-P[dH]S[dC]N-NH2)
[1]
  concentration range demonstrating inhibition of invasion: 3 to 10 pg/ml and 5.0 to 16.7 pM
  fold lower IC50 than that for PHSCN: over 10,000 fold
  invasion-inhibiting potency relative to comparators, in words: orders of magnitude more potent
[1]; 72 h
  IC50 (concentration exhibiting a 50% inhibition of invasion, relative to stimulated controls): 0.3 pg/mL
DU 145 prostate cancer; 0.5 μg/kg thrice-weekly by tail vein injection, 7 weeks of treatment
  visible tumor tissue after treatment: no tumor tissue was visible
DU 145 prostate cancer; mouse, in vivo
  potency as inhibitor of tumorigenesis in vivo relative to Ac-PHSCN—NH2: orders of magnitude more potent
α5β1 integrin [6]
  competition for biotinylated PHSCN binding to the α5 integrin subunit: efficient competitor
